# Measurements taken from US11466011B2, “Compounds and their use as inhibitors of N-myristoyl transferase” (Imperial College Innovations Limited, priority 2015, dated 2022).
# Molecular target: Trypanosoma brucei (Tb) N-myristoyl transferase (Trypanosoma brucei brucei, UniProt Q388H8)
# Experiment: Fluorescence-based NMT assay (a), adapted version, TbNMT
# Format: biochemical
# Trypanosoma brucei (Tb) N-myristoyl transferase, sequence (Q388H8 entry or part of it): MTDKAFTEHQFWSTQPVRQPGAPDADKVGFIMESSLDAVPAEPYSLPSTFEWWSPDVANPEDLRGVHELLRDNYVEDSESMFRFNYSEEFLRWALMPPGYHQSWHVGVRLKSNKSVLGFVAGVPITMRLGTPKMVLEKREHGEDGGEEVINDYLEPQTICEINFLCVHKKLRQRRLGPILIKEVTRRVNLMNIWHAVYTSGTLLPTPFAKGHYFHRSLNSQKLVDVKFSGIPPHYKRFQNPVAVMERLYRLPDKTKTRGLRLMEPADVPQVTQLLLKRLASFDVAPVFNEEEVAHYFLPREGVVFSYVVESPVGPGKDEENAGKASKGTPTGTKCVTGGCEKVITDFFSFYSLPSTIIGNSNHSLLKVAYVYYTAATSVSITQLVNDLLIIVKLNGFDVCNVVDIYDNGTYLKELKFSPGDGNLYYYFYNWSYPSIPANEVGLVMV
smiles,measurement,value
Cc1nn(C)c(C)c1CCOc1cc(F)ccc1-c1ccc2[nH]nc(CN(C)C)c2c1 [Example 7],IC50,1 to 100 nM
